# Data as given in patent US20240150377A1, “MODULATORS OF CYSTIC FIBROSIS TRANSMEMBRANE CONDUCTANCE REGULATOR” (VERTEX PHARMACEUTICALS INCORPORATED, priority 2020, published 2024).
# Like-named read-outs stand apart in the source and are kept apart here.
# Molecular target: T1, CFTR (Homo sapiens, UniProt P13569, DEL508-508)
# T1 construct: endogenous in cells; host or cells: primary human bronchial epithelial cells from CF subjects (F508del/MF-HBE), differentiated at air-liquid interface
# Experiment: HBE assay: Ussing chamber assay of CFTR-mediated short-circuit currents
# Format: cell-based
# Details: for activation at 10 µM: read-out: HBE Activity at 10 μM (%); for EC50: read-out: HBE EC50
# Method in brief: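 CFTR-mediated Isc (μA/cm²) equals the peak response to apical 20 μM forskolin minus the residual after a 20 μM each BPO/GlyH-101/CFTR inhibitor 172 cocktail, recorded in Ussing chambers at Vhold 0 mV, 37 °C, pH 7.4, with 30 μM apical amiloride. Cells were F508del/MF HBE cultures preincubated 18-24 h with corrector (concentration range or 10 μM) plus 1 μM ivacaftor in 20% human serum.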
# [1] = Table 13, read-out: HBE Max Activity (%)
# [2] = Table 12, read-out: HBE Max Activity (%)
# [3] = Table 11, read-out: HBE Max Activity (%)
# [4] = Table 10, read-out: HBE Max activity (%)
# T1 sequence (P13569 with tags, fused parts or gaps DEL508-508): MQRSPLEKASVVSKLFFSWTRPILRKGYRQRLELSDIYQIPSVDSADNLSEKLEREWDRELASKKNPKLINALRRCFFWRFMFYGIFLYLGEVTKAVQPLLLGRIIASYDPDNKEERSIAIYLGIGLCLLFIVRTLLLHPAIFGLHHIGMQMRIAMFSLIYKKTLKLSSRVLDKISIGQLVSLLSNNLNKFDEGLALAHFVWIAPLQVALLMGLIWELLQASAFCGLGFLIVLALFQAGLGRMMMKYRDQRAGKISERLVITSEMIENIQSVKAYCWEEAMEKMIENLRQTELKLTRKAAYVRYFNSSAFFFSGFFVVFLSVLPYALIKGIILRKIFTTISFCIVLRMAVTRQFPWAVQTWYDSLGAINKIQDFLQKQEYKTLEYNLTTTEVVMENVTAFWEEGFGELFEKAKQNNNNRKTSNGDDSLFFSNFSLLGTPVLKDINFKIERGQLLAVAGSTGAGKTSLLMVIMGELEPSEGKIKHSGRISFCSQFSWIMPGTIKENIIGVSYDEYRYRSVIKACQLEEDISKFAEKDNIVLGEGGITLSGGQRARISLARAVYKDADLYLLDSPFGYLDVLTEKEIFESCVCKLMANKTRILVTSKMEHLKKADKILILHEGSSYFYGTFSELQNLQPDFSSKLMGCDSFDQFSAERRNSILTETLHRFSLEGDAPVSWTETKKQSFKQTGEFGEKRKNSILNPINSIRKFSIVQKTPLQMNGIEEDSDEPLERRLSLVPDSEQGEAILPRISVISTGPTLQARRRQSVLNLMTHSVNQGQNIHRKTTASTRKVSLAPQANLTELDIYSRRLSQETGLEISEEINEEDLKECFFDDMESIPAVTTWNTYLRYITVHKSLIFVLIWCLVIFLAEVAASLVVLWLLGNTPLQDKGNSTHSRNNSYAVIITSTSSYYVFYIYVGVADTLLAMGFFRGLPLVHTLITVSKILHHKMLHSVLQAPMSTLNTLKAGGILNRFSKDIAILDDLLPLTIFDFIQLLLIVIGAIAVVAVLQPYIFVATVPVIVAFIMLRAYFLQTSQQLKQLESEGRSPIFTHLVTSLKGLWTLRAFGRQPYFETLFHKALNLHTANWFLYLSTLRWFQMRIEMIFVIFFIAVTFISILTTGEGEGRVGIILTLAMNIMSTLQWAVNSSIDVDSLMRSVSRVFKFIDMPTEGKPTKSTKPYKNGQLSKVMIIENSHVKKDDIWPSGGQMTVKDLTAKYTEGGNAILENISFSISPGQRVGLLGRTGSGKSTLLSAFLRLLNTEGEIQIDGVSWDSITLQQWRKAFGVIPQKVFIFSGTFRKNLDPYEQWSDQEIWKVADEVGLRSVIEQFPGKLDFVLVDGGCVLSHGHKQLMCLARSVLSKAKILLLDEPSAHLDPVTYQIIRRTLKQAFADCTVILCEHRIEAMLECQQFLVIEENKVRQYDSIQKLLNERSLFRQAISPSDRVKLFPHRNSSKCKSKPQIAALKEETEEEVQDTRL
EC50 (Table 13),Emax [1],other results,Compound
,,activation at 10 µM (Table 13): > 600%,Cc1cccc(C)c1-c1cc2nc(n1)NS(=O)(=O)c1cccc(c1)C(=O)N(Cc1ccc(N3CC4(CCOC4)C3)cn1)[C@H](CC(C)(C)C)CO2 [Compound 1055]
1000 to 3000 nM,> 60%,,Cc1cccc(C)c1-c1cc2nc(n1)NS(=O)(=O)c1cccc(c1)C(=O)N(Cc1ccc(N3CC4(CC(=O)C4)C3)cn1)[C@H](CC(C)(C)C)CO2 [Compound 1056]
,,activation at 10 µM (Table 13): > 600%,Cc1cccc(C)c1-c1cc2nc(n1)NS(=O)(=O)c1cccc(c1)C(=O)N(Cc1ccc(C3CC4(C3)CC(C)(C)C4)cn1)[C@H](CC(C)(C)C)CO2 [Compound 1057]
< 1000 nM,> 60%,,Cc1cccc(C)c1-c1cc2nc(n1)NS(=O)(=O)c1cccc(c1)C(=O)N(Cc1ccc(N3CC4(CCCO4)C3)cn1)[C@H](CC(C)(C)C)CO2 [Compound 1058]
< 1000 nM,> 60%,,COC1(C)CCN(c2ccc(CN3C(=O)c4cccc(c4)S(=O)(=O)Nc4nc(cc(-c5c(C)cccc5C)n4)OC[C@H]3CC(C)(C)C)nc2)CC1 [Compound 1059]
< 1000 nM,> 60%,,Cc1cccc(C)c1-c1cc2nc(n1)NS(=O)(=O)c1cccc(c1)C(=O)N(Cc1ccc(N3CC4(CCOCC4)C3)cn1)[C@H](CC(C)(C)C)CO2 [Compound 1060]
,,activation at 10 µM (Table 13): > 600%,Cc1cccc(C)c1-c1cc2nc(n1)NS(=O)(=O)c1cccc(c1)C(=O)N(Cc1ccc(C3COC(C)(C)C3)cn1)[C@H](CC(C)(C)C)CO2 (some centres unmarked) [Compound 1062]
< 1000 nM,> 60%,,Cc1cccc(C)c1-c1cc2nc(n1)NS(=O)(=O)c1cccc(c1)C(=O)N(Cc1ccc(N3CC4(COC4)C3)cn1)[C@H](CC(C)(C)C)CO2 [Compound 1063]
,,EC50 (Table 12): < 1000 nM; Emax [2]: > 60%,Cc1cccc(C(C)C)c1-c1cc2nc(n1)NS(=O)(=O)c1cccc(c1)C(=O)N(Cc1cnc(C3CCOCC3)cn1)[C@H](CC(C)(C)C)CO2 [Compound 1064]
,,EC50 (Table 12): < 1000 nM; Emax [2]: > 60%,Cc1cccc(C)c1-c1cc2nc(n1)NS(=O)(=O)c1cccc(c1)C(=O)C(Cc1ccc(C3CCCOC3)cn1)[C@H](CC(C)(C)C)CO2 (some centres unmarked) [Compound 1065]
< 1000 nM,> 60%,,COc1ccc(F)c(CN2C(=O)c3cccc(c3)S(=O)(=O)Nc3nc(cc(-c4c(C)cccc4C)n3)OC[C@H]2CC(C)(C)C)n1 [Compound 1066]
< 1000 nM,> 60%,,COc1cnc(CN2C(=O)c3cccc(c3)S(=O)(=O)Nc3nc(cc(-c4c(C)cccc4C)n3)OC[C@H]2CC(C)(C)C)c(Cl)c1 [Compound 1067]
< 1000 nM,> 60%,,Cc1cccc(C)c1-c1cc2nc(n1)NS(=O)(=O)c1cccc(c1)C(=O)N(Cc1ncccc1F)[C@H](CC(C)(C)C)CO2 [Compound 1068]
,,EC50 (Table 11): < 1000 nM; Emax [3]: > 60%,Cc1cncc(CN2C(=O)c3cccc(c3)S(=O)(=O)Nc3nc(cc(-c4c(C)cccc4C)n3)OC[C@H]2CC(C)(C)C)n1 [Compound 1069]
,,EC50 (Table 11): < 1000 nM; Emax [3]: > 60%,Cc1ccnc(CN2C(=O)c3cccc(c3)S(=O)(=O)Nc3nc(cc(-c4c(C)cccc4C)n3)OC[C@H]2CC(C)(C)C)c1 [Compound 1070]
,,EC50 (Table 11): < 1000 nM; Emax [3]: > 60%,Cc1cccc(C)c1-c1cc2nc(n1)NS(=O)(=O)c1cccc(c1)C(=O)N(Cc1cc(C3CC3)on1)[C@H](CC(C)(C)C)CO2 [Compound 1071]
,,Emax [4]: > 60%,Cc1cccc(C)c1-c1cc2nc(n1)NS(=O)(=O)c1cccc(c1)C(=O)N(Cc1ncc(N(C)C)cn1)[C@H](CC(C)(C)C)CO2 [Compound 1072]
,,Emax [4]: > 60%,Cc1cccc(C)c1-c1cc2nc(n1)NS(=O)(=O)c1cccc(c1)C(=O)N(Cc1ccc(C(C)(C)C)nc1)[C@H](CC(C)(C)C)CO2 [Compound 1074]
,,EC50 (Table 10): < 1000 nM; Emax [4]: > 60%,Cc1ccc2ccccc2c1-c1cc2nc(n1)NS(=O)(=O)c1cccc(c1)C(=O)N(Cc1ccc(N3CCOCC3)cn1)[C@H](CC(C)(C)C)CO2 [Compound 1075]
< 1000 nM,> 60%,,Cc1cccc(C)c1-c1cc2nc(n1)NS(=O)(=O)c1cccc(c1)C(=O)N(Cc1ncc(Cl)cc1F)[C@H](CC(C)(C)C)CO2 [Compound 1111]
< 1000 nM,> 60%,,COc1cnc(CN2C(=O)c3cccc(c3)S(=O)(=O)Nc3nc(cc(-c4c(C)cccc4C)n3)OC[C@H]2CC(C)(C)C)c(F)c1 [Compound 1112]
< 1000 nM,> 60%,,Cc1ccc(F)c(CN2C(=O)c3cccc(c3)S(=O)(=O)Nc3nc(cc(-c4c(C)cccc4C)n3)OC[C@H]2CC(C)(C)C)n1 [Compound 1113]
,,activation at 10 µM (Table 13): > 600%,Cc1cccc(C)c1-c1cc2nc(n1)NS(=O)(=O)c1cccc(c1)C(=O)N(Cc1cc(OC(C)C)ccn1)[C@H](CC(C)(C)C)CO2 [Compound 1114]
,,activation at 10 µM (Table 13): > 600%,Cc1cccc(C)c1-c1cc2nc(n1)NS(=O)(=O)c1cccc(c1)C(=O)N(CC1(C(=O)NC3CCCCC3)CC1)[C@H](CC(C)(C)C)CO2 [Compound 1115]
